Measured values: patent publication US5081261A, “4-(1-hydroxy-2-N-substituted sulfonamido) ethyl-5-hydroxy-2(5H)-furanones and 4-(N-substituted sulfonamido)-2-ethenyl-5-hydroxy-2(5H)-furanones as anti-inflammatory agents” (Allergan, Inc., priority 1990, dated 1992)
pIC50: −log10 of the molar value.

Legend:
[1] = target: bee venom phospholipase A2 (Apis mellifera, UniProt P00630); experiment: biochemical
[2] = prior art; cited from earlier work
[3] = tested on: phosphoinositide-specific phospholipase C; conditions: reported for manoalide, Bennett et al; cited from earlier work

Chain of bee venom phospholipase A2 (P00630 34-167 limits assumed): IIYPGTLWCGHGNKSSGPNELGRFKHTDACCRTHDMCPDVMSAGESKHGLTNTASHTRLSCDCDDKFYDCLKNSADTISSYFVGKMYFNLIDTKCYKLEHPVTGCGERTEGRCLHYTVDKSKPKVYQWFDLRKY

For `CCCCCCCCCCCCNS(=O)(=O)CC(OC(C)=O)C1=CC(=O)OC1O` (stereo not drawn) [Compound 6, 4-[1-Acetoxy-2-(N-dodecylsulfonamido)]ethyl-5-hydroxy-2(5H)-furanone], the pIC50 [1] was 7.30.
In the case of `CC1=C(CC/C(C)=C/CCC(C=O)=CC=CC2=CC(=O)OC2O)C(C)(C)CCC1` (stereo not drawn) [Compound 3], the biological properties [2] is given as “anti-inflammatory activity”.
`CCCCCCCCCCCCNS(=O)(=O)/C=C/C1=CC(=O)OC1O` (stereo not drawn) [Compound 4, 4-[2-(N-Dodecylsulfonamido)ethenyl]-5-hydroxy-2(5H)-furanone] showed a pIC50 [1] of 7.40.
`CCCCCCCCCCCCNS(=O)(=O)CC(OC(=O)CCCC(=O)O)C1=CC(=O)OC1O` (stereo not drawn) [Compound 7, 4-[1-Gluraroyloxy-2-(N-dodecylsulfonamido)]ethyl-5-hydroxy-2(5H)-furanone] gave a pIC50 [1] of 7.30.
In the case of `CC1=C(CC/C(C)=C/CCC(C=O)=CCC(O)C2=CC(=O)OC2O)C(C)(C)CCC1` (stereo not drawn) [Compound 2], the biological properties [2] is given as “anti-inflammatory activity”.
For `CC1=C(CC/C(C)=C/CCC2=CCC(C3=CC(=O)OC3O)OC2O)C(C)(C)CCC1` (stereo not drawn) [Compound 1], the pIC50 [1] is given as 7.52, the “inhibition of phosphoinositide-specific phospholipase C” value [3] is given as “inhibition” and the biological properties [2] is given as “anti-inflammatory,immunosuppressive and analgesic properties”.
In the case of `CCCCCCCCCCCCNS(=O)(=O)CC(O)C1=CC(=O)OC1O` (stereo not drawn) [Compound 5, 4-[1-Hydroxy-2-(N-dodecylsulfonamido)]ethyl-5-hydroxy-2(5H)-furanone], the pIC50 [1] was 7.00.
